How the values were obtained:
[1] = GI S9 stability (Ex. Z), rat intestinal S9; format: in vitro ADME; conditions: pooled intestinal S9 fractions; rat intestinal S9, 1.0 mg/mL protein, 2 μM substrate, pH 7.4; read-out: GIS9 Rat T½ (per Ex. Z)
Procedure: Example Z: GI S9 stability data:
Stock solutions of test compounds in dimethyl sulfoxide (DMSO) having a final concentration of 10 mM were prepared and used in all experiments. Sekisui XenoTech (Kansas City, KS) provided pooled intestinal S9 fractions. All other chemicals were purchased from Sigma-Aldrich (St. Louis, MO) or VWR (West Chester, PA). Internal Standard/Quench (IS/Q) used to stop reactions was 100 nM labetalol in (by volume) methanol (10%) and acetonitrile (90%).
Stability in Intestinal S9 Fractions: Duplicate aliquots of test compound or positive control substrate were added to S9 stock diluted with phosphate buffered saline (137 mM NaCl, 2.7 mM KCl, 10 mM phosphate buffer), pH 7.4, to obtain a protein concentration of 1.0 mg/mL. The metabolic reactions were initiated by the addition of the substrates to the S9 reaction mixture to a final concentration of 2 μM. At 0, 10, 20, 30, 60 and 120 min, 25 μL aliquots of the reaction mixture were transferred to plates containing 225 μl of IS/Q solution. After quenching, the plates were centrifuged at 3000×g for 30 minutes. 150 μL aliquots of each supernatant were dried down then reconstituted with 300 μL water. Aliquots (10 μL) of the prepared samples were analyzed on a Thermo Q-Exactive mass spectrometer as described below.
Liquid Chromatography—Mass Spectrometry: Quantification of test compounds and control substrate was performed by analyte/internal standard peak area ratio (PAR) values measured on a Thermo Q-Exactive mass spectrometer coupled to a Dionex UltiMate 3000 HPLC with a Leap Technologies HTC PAL autosampler. The column used for analysis was a Waters Acquity BEH C18 (1.7 μm particle size, 2.1×50 mm). Mobile phase A consisted of 0.1% (v/v) formic acid in water. Mobile phase B consisted of 0.1% (v/v) formic acid in acetonitrile. Elution of analytes was achieved by a series of linear gradients varying the proportions of A and B. The mass spectrometer was calibrated on a weekly basis and mass tolerance of 5 ppm was used.
Metabolic stabilities in S9 fractions were determined by measuring the rates of disappearance of test compound and positive control substrate.
Data (% of substrate remaining) were plotted on a semi-log scale and fitted using an exponential decline model:
Where Ct—% of substrate remaining at time=t; C0—% of substrate remaining at time=0; t—time; T½—half-life The Half-life (T½) is determined by the following equation: […]
Assuming a first-order reaction, the slope (k) is extrapolated from the aforementioned plotted data.

[2] = tested on: Human Rhinovirus 14 (HRV14) in H1-HeLa cells; assay: H1-HeLa HRV-CTG 384-well Assay (Ex. Y), HRV14; format: cell-based; conditions: Rhinovirus B, 96 h; H1-HeLa cells, HRV14 MOI 1.0, 4 days, Celltiter-Glo; read-out: EC50 H1-HeLa_HRV14_HRV-CTG 384-well Assay (per Ex Y)
From the text: Example Y: H1-HeLa HRV-CTG 384-well Assay
H1-Hela cell line (ATCC, Manassas, VA, Cat #CRL-1958) was maintained in Dulbecco's […] (DMEM) (Corning, New York, NY, Cat #15-018CM) supplemented with 10% fetal bovine serum (FBS) (Hyclone, Logan, UT, Cat #SH30071-03), and 1× Penicillin-Streptomycin-L-Glutamine (Corning, New York, NY, Cat #30-009-CI). Cells were passaged 2 times per week to maintain sub-confluent densities and were used for experiments at passage 5-30. The Human Rhinovirus 1B (HRV1B) (ATCC, Manassas, VA, Cat #VR-1645) , Human Rhinovirus 14 (HRV14) (ATCC, Manassas, VA, Cat #VR-284), and Human Rhinovirus 16 (HRV16) (ATCC, Manassas, VA, Cat #BR-283) was obtained through ATCC. Viral infection was monitored by determining viability of H1-HeLa cells as described below.
Test molecules are prepared in 100% DMSO in 384-well polypropylene plates (Greiner, Monroe, NC, Cat #784201) with 8 compounds per plate in grouped replicates of 4 at 10 serially diluted concentrations (1:3). The serially diluted compounds were transferred to low dead volume Echo plates (Labcyte, Sunnyvale, CA, Cat #LP-0200).
The test compounds were spotted to 384-well assay plates (Greiner, Monroe, NC, Cat#781091) at 200 nL per well using an Echo acoustic dispenser (Labcyte, Sunnyvale, CA). H1-HeLa cells were harvested and suspended in DMEM (supplemented with 2% FBS and 1× Penicillin-Streptomycin-L-Glutamine) and seeded to the pre-spotted assay plates at 5,000 cells per well in 30 μL. HRV1B, HRV14, and HRV16 was diluted in DMEM (supplemented with 2% FBS and 1× Penicillin-Streptomycin-L-Glutamine) at 97.1 million Infectious Units (IU) per mL, 151 million IU per mL and 221 million IU per mL respectively. 10 μL of virus per well was added to the assay plates containing cells and compounds, for an MOI of 0.5, 1.0, and 0.25 respectively. The assay plates were incubated for 4 days at 37° C. and 5% CO2. At the end of incubation, Celltiter-Glo (Promega, Madison, WI, Cat #(Ga7573) was prepared. The assay plates and Celltiter-Glo reagent were equilibrated to room temperature for at least 15 minutes. 40 μL per well of Celltiter-Glo reagent was added and the plates were incubated at room temperature for 15 minutes before reading the luminescence signal on an EnVision multimode plate reader (Perkin Elmer, Waltham, MA). Rupintrivir was used as positive control and DMSO was used as negative control. Values were normalized to the positive and negative controls (as 0% and 100% replication, respectively) and data was fitted using non-linear regression analysis by Gilead's dose response tool. The EC50 value for each compound was defined as the concentration reducing viral replication by 50%.

Compound | half-life at 2 μM [1] | EC50 [2]
CC(C)(C)C(=O)OC[C@@]1(C#N)O[C@@H](c2ccc3c(N)ncnn23)[C@H](O)[C@@H]1O [Compound 10, ((2R,3S,4R,5S)-5-(4-aminopyrrolo[2,1-f][1,2,4]triazin-7-yl)-2-cyano-3,4-dihydroxytetrahydrofuran-2-yl)methyl pivalate] | 53 min | 10.9 µM
CCC(CC)C(=O)Nc1ncnn2c([C@@H]3O[C@](C#N)(COC(=O)C(CC)CC)[C@@H](O)[C@H]3O)ccc12 [Compound 11, ((2R,3S,4R,5S)-2-cyano-5-(4-(2-ethylbutanamido)pyrrolo[2,1-f][1,2,4]triazin-7-yl)-3,4-dihydroxytetrahydrofuran-2-yl)methyl 2-ethylbutanoate] | 37 min | 50 µM
CC(C)[C@H](N)C(=O)OC[C@@]1(C#N)O[C@@H](c2ccc3c(N)ncnn23)[C@H](O)[C@@H]1O [Compound 12, ((2R,3S,4R,5S)-5-(4-aminopyrrolo[2,1-f][1,2,4]triazin-7-yl)-2-cyano-3,4-dihydroxytetrahydrofuran-2-yl)methyl L-valinate] | 9 min | 6 µM
CC(C)(C)CC(=O)OC[C@@]1(C#N)O[C@@H](c2ccc3c(N)ncnn23)[C@H](O)[C@@H]1O [Compound 13, ((2R,3S,4R,5S)-5-(4-aminopyrrolo[2,1-f][1,2,4]triazin-7-yl)-2-cyano-3,4-dihydroxytetrahydrofuran-2-yl)methyl 3,3-dimethylbutanoate] | 185 min | 50 µM
Cc1ccc(C(=O)OC[C@@]2(C#N)O[C@@H](c3ccc4c(N)ncnn34)[C@H](O)[C@@H]2O)cc1 [Compound 14, ((2R,3S,4R,5S)-5-(4-aminopyrrolo[2,1-f][1,2,4]triazin-7-yl)-2-cyano-3,4-dihydroxytetrahydrofuran-2-yl)methyl 4-methylbenzoate] | 6 min | 8.17 µM
CC1(C(=O)OC[C@@]2(C#N)O[C@@H](c3ccc4c(N)ncnn34)[C@H](O)[C@@H]2O)CC1 [Compound 15, ((2R,3S,4R,5S)-5-(4-aminopyrrolo[2,1-f][1,2,4]triazin-7-yl)-2-cyano-3,4-dihydroxytetrahydrofuran-2-yl)methyl 1-methylcyclopropane-1-carboxylate] | 23 min | 50 µM
N#C[C@]1(COC(=O)CC2CCC2)O[C@@H](c2ccc3c(N)ncnn23)[C@H](O)[C@@H]1O [Compound 16, ((2R,3S,4R,5S)-5-(4-aminopyrrolo[2,1-f][1,2,4]triazin-7-yl)-2-cyano-3,4-dihydroxytetrahydrofuran-2-yl)methyl 2-cyclobutylacetate] | 4 min | 6.99 µM
CC1(C)CC(C(=O)OC[C@@]2(C#N)O[C@@H](c3ccc4c(N)ncnn34)[C@H](O)[C@@H]2O)C1 [Compound 17, ((2R,3S,4R,5S)-5-(4-aminopyrrolo[2,1-f][1,2,4]triazin-7-yl)-2-cyano-3,4-dihydroxytetrahydrofuran-2-yl)methyl 3,3-dimethylcyclobutane-1-carboxylate] | 3 min | 7.83 µM
N#C[C@]1(COC(=O)C2CCCC2)O[C@@H](c2ccc3c(N)ncnn23)[C@H](O)[C@@H]1O [Compound 18, ((2R,3S,4R,5S)-5-(4-aminopyrrolo[2,1-f][1,2,4]triazin-7-yl)-2-cyano-3,4-dihydroxytetrahydrofuran-2-yl)methyl cyclopentanecarboxylate] | 3 min | 6.93 µM
N#C[C@]1(COC(=O)C2CCCCC2)O[C@@H](c2ccc3c(N)ncnn23)[C@H](O)[C@@H]1O [Compound 19, ((2R,3S,4R,5S)-5-(4-aminopyrrolo[2,1-f][1,2,4]triazin-7-yl)-2-cyano-3,4-dihydroxytetrahydrofuran-2-yl)methyl cyclohexanecarboxylate] | 4 min | 6.84 µM
CC(C)C(=O)OC[C@@]1(C#N)O[C@@H](c2ccc3c(N)ncnn23)[C@H](OC(=O)C(C)C)[C@@H]1OC(=O)C(C)C [Compound 20, (2R,3S,4S,5S)-5-(4-aminopyrrolo[2,1-f][1,2,4]triazin-7-yl)-2-cyano-2-((isobutyryloxy)methyl)tetrahydrofuran-3,4-diyl bis(2-methylpropanoate)] | 2 min | 12.8 µM
N#C[C@]1(COC(=O)[C@H]2CCC(=O)O2)O[C@@H](c2ccc3c(N)ncnn23)[C@H](O)[C@@H]1O [Compound 25, ((2R,3S,4R,5S)-5-(4-aminopyrrolo[2,1-f][1,2,4]triazin-7-yl)-2-cyano-3,4-dihydroxytetrahydrofuran-2-yl)methyl (R)-5-oxotetrahydrofuran-2-carboxylate] | 5 min | 6.01 µM
CC(=O)OC[C@@]1(C#N)O[C@@H](c2ccc3c(N)ncnn23)[C@H](OC(C)=O)[C@@H]1OC(C)=O [Compound 28, (2R,3S,4S,5S)-2-(acetoxymethyl)-5-(4-aminopyrrolo[2,1-f][1,2,4]triazin-7-yl)-2-cyanotetrahydrofuran-3,4-diyl diacetate] | 5 min | 19.8 µM
CC(C)C(=O)Nc1ncnn2c([C@@H]3O[C@](C#N)(CO)[C@@H](O)[C@H]3O)ccc12 [Compound 30, N-(7-((2S,3R,4S,5R)-5-cyano-3,4-dihydroxy-5-(hydroxymethyl)tetrahydrofuran-2-yl)pyrrolo[2,1-f][1,2,4]triazin-4-yl)isobutyramide] | 789 min | 36.2 µM
N#C[C@]1(COC(=O)C2CC3(CCC3)C2)O[C@@H](c2ccc3c(N)ncnn23)[C@H](O)[C@@H]1O [Compound 32, ((2R,3S,4R,5S)-5-(4-aminopyrrolo[2,1-f][1,2,4]triazin-7-yl)-2-cyano-3,4-dihydroxytetrahydrofuran-2-yl)methyl spiro[3.3]heptane-2-carboxylate] | 2 min | 5.14 µM
CC1(CC(=O)OC[C@@]2(C#N)O[C@@H](c3ccc4c(N)ncnn34)[C@H](O)[C@@H]2O)CCC1 [Compound 33, ((2R,3S,4R,5S)-5-(4-aminopyrrolo[2,1-f][1,2,4]triazin-7-yl)-2-cyano-3,4-dihydroxytetrahydrofuran-2-yl)methyl 2-(1-methylcyclobutyl)acetate] | 31 min | 20.8 µM
